ChEMBL document CHEMBL1151682, “Insecticidal neolignans from Piper decurrens” (J Nat Prod, 1996)
Activity calls are given as the source filed them. No cut-off for these calls is given here.

Tested on: Aedes atropalpus
Experiment: Toxicity in sOchlerotatus atropalpus second-instar larvae at 10 ppm after 24 hrs
Type: functional, organism-based

Row | SMILES | Activity
1 | C/C=C/c1ccc2oc(-c3ccc(O)cc3)c(C)c2c1 | Active
2 | c1csc(-c2ccc(-c3cccs3)s2)c1 | Active
3 | C[C@H]1c2cc(C=O)ccc2O[C@@H]1c1ccc(O)cc1 | inactive
